#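 Cells were grown in 96-well plates and exposed to each compound for 48 hours at five concentrations; endpoints were interpolated linearly between bracketing concentrations, or set to the highest concentration if not reached. GI50: concentration for 50% inhibition of growth.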 The source made the active and inactive calls. Cut-off read from the data, not from the text of the source: active = GI50 up to about 1.1 µM and inactive = higher.
# Legend:
# Test in all cases: NCI anticancer screen, dose series, 48 h
# [1] = test system: NCI-H23
# [2] = test system: K562
# [3] = test system: HT-29
# [4] = test system: MOLT-4
# [5] = test system: NCI-H460
# [6] = test system: A498
# [7] = test system: SK-MEL-28
# [8] = test system: HCT-15
# [9] = test system: SNB-19
# [10] = test system: SK-MEL-2
# [11] = test system: SF-539
# [12] = test system: KM-20L2
# [13] = test system: SNB-78
# [14] = test system: M14
# [15] = test system: COLO 205
# [16] = test system: SF-268
# [17] = test system: Malme-3M
# [18] = test system: HL-60
# [19] = test system: LXFL 529
# [20] = test system: A549
# [21] = test system: LOX IMVI
# [22] = test system: OVCAR-8
# [23] = test system: XF498
# [24] = test system: M19-MEL
# [25] = test system: SK-MEL-5
# [26] = test system: SF-295
# [27] = test system: HOP-62
# [28] = test system: NCI-H522
# [29] = test system: RPMI-8226
# [30] = test system: DLD-1
# [31] = test system: SR
# [32] = test system: DMS-273
# [33] = test system: TK-10
# [34] = test system: DMS-114
# [35] = test system: SW-620
# [36] = test system: NCI-H226
# [37] = test system: ACHN
# [38] = test system: HCT-116
# [39] = test system: HOP-92
# [40] = test system: HOP-18
# [41] = test system: OVCAR-5
# [42] = test system: EKVX
# [43] = test system: UO-31
# [44] = test system: UACC-62
# [45] = test system: HCC 2998
# [46] = test system: CCRF-CEM
# [47] = test system: 786-0
# [48] = test system: UACC-257
# [49] = test system: U-251
# [50] = test system: SK-OV-3
# [51] = test system: IGROV-1
# [52] = test system: SNB-75
# [53] = test system: KM12
# [54] = test system: SN12C
# [55] = test system: OVCAR-3
# [56] = test system: RXF 393
# [57] = test system: CAKI-1
# [58] = test system: OVCAR-4
smiles,measurement,setting,value
CN(C)CC1CCCC(CN(C)C)C1=NOC(=O)c1ccccc1 (configuration not stated),GI50,[1],> 100 µM (inactive)
same,GI50,[2],> 100 µM (inactive)
same,GI50,[3],> 100 µM (inactive)
same,GI50,[4],> 100 µM (inactive)
same,GI50,[5],> 100 µM (inactive)
same,GI50,[6],> 100 µM (inactive)
same,GI50,[7],> 100 µM (inactive)
same,GI50,[8],> 100 µM
same,GI50,[9],> 100 µM (inactive)
same,GI50,[10],> 100 µM (inactive)
same,GI50,[11],> 100 µM (inactive)
same,GI50,[12],> 100 µM (inactive)
same,GI50,[13],> 100 µM (inactive)
same,GI50,[14],> 100 µM (inactive)
same,GI50,[15],> 100 µM (inactive)
same,GI50,[16],> 100 µM (inactive)
same,GI50,[17],> 100 µM (inactive)
same,GI50,[18],> 100 µM (inactive)
same,GI50,[19],> 100 µM (inactive)
same,GI50,[20],> 100 µM (inactive)
same,GI50,[21],> 100 µM (inactive)
same,GI50,[22],> 100 µM (inactive)
same,GI50,[23],> 100 µM (inactive)
same,GI50,[24],> 100 µM (inactive)
same,GI50,[25],> 100 µM (inactive)
same,GI50,[26],> 100 µM (inactive)
same,GI50,[27],> 100 µM (inactive)
same,GI50,[28],> 100 µM (inactive)
same,GI50,[29],> 100 µM (inactive)
same,GI50,[30],> 100 µM (inactive)
same,GI50,[31],> 100 µM (inactive)
same,GI50,[32],> 100 µM (inactive)
same,GI50,[33],> 100 µM (inactive)
same,GI50,[34],> 100 µM (inactive)
same,GI50,[35],> 100 µM (inactive)
same,GI50,[36],> 100 µM (inactive)
same,GI50,[37],> 100 µM (inactive)
same,GI50,[38],> 100 µM (inactive)
same,GI50,[39],> 100 µM (inactive)
same,GI50,[40],> 81.8 µM (inactive)
same,GI50,[41],> 100 µM (inactive)
same,GI50,[42],> 100 µM (inactive)
same,GI50,[43],> 100 µM (inactive)
same,GI50,[44],> 100 µM (inactive)
same,GI50,[45],> 100 µM (inactive)
same,GI50,[46],> 100 µM (inactive)
same,GI50,[47],> 100 µM (inactive)
same,GI50,[48],> 100 µM (inactive)
same,GI50,[49],> 100 µM (inactive)
same,GI50,[50],> 100 µM (inactive)
same,GI50,[51],> 100 µM (inactive)
same,GI50,[52],> 56.5 µM (inactive)
same,GI50,[53],> 100 µM (inactive)
same,GI50,[54],> 100 µM (inactive)
same,GI50,[55],> 100 µM (inactive)
O=C(CCN(CCO)CCO)Nc1ccc2c(c1)C(=O)c1ccc(NC(=O)CCN(CCO)CCO)cc1C2=O,GI50,[1],38.7 µM (inactive)
same,GI50,[2],18.5 µM (inactive)
same,GI50,[3],28.1 µM (inactive)
same,GI50,[4],13.8 µM (inactive)
same,GI50,[5],10.8 µM (inactive)
same,GI50,[6],9.86 µM (inactive)
same,GI50,[7],15.1 µM (inactive)
same,GI50,[8],6.47 µM
same,GI50,[9],22.5 µM (inactive)
same,GI50,[10],3.37 µM (inactive)
same,GI50,[11],4.81 µM (inactive)
same,GI50,[12],48.4 µM (inactive)
same,GI50,[13],6.62 µM (inactive)
same,GI50,[56],4 µM (inactive)
same,GI50,[14],12.4 µM (inactive)
same,GI50,[15],10.7 µM (inactive)
same,GI50,[16],12.2 µM (inactive)
same,GI50,[57],5.56 µM (inactive)
same,GI50,[17],12.8 µM (inactive)
same,GI50,[18],9.59 µM (inactive)
same,GI50,[19],2.05 µM (inactive)
same,GI50,[20],44.4 µM (inactive)
same,GI50,[21],14.2 µM (inactive)
same,GI50,[22],14 µM (inactive)
same,GI50,[23],11.9 µM (inactive)
same,GI50,[24],13.7 µM (inactive)
same,GI50,[25],17.2 µM (inactive)
same,GI50,[26],> 100 µM (inactive)
same,GI50,[27],29.4 µM (inactive)
same,GI50,[28],5.89 µM (inactive)
same,GI50,[29],14.6 µM (inactive)
same,GI50,[31],14.8 µM (inactive)
same,GI50,[32],6.64 µM (inactive)
same,GI50,[33],13.4 µM (inactive)
same,GI50,[34],5.11 µM (inactive)
same,GI50,[35],6.73 µM (inactive)
same,GI50,[58],20 µM (inactive)
same,GI50,[36],6.95 µM (inactive)
same,GI50,[37],9.29 µM (inactive)
same,GI50,[38],7.36 µM (inactive)
same,GI50,[39],26.7 µM (inactive)
same,GI50,[40],27 µM (inactive)
same,GI50,[41],> 100 µM (inactive)
same,GI50,[42],5.69 µM (inactive)
same,GI50,[43],10.4 µM (inactive)
same,GI50,[44],3.44 µM (inactive)
same,GI50,[45],1.51 µM (inactive)
same,GI50,[46],6.52 µM (inactive)
same,GI50,[47],4.62 µM (inactive)
same,GI50,[48],24.1 µM (inactive)
same,GI50,[49],22.3 µM (inactive)
same,GI50,[50],14.9 µM (inactive)
same,GI50,[51],13.7 µM (inactive)
same,GI50,[52],30.8 µM (inactive)
same,GI50,[53],14.4 µM (inactive)
same,GI50,[54],12.8 µM (inactive)
same,GI50,[55],16.1 µM (inactive)

# Source: ChEMBL document CHEMBL1201862, “PubChem BioAssay data set” (2004)
